Numbers after ± are expanded uncertainties.
Test: mn = molality of the nth substance listed, in mol/kg
Settings: 350 kPa, Liquid, Extra sensitive DSC

NCC(=O)O [2-aminoacetic acid] + O
apparent molar heat capacity [J/K/mol]
Settings	m1 = 0.015	m1 = 0.03	m1 = 0.0503	m1 = 0.0804	m1 = 0.125	m1 = 0.2493	m1 = 0.5056
278.15 K	8 ± 52	–	–	–	–	–	4.4 ± 1.9
283.15 K	25 ± 52	1	–	12.3 ± 13	10.3 ± 8.3	12.4 ± 4.2	18.7 ± 1.9
288.15 K	38 ± 52	14 ± 29	11 ± 17	25.5 ± 13	23.6 ± 8.3	25.3 ± 4.2	30.5 ± 1.8
293.15 K	50 ± 52	25 ± 29	24 ± 17	36.5 ± 12	34.1 ± 7.9	35.4 ± 4.1	40.4 ± 1.7
298.15 K	59 ± 52	33 ± 29	34.8 ± 17	45.4 ± 12	42.9 ± 7.6	44 ± 3.9	48.3 ± 1.8
303.15 K	67 ± 52	41 ± 29	43.7 ± 17	52.8 ± 12	50.1 ± 7.7	51.1 ± 4	55.2 ± 1.8
308.15 K	73 ± 52	48 ± 29	51 ± 17	59.1 ± 12	55.8 ± 7.6	57 ± 3.9	60.9 ± 1.8
313.15 K	78 ± 52	54 ± 29	57.3 ± 17	64.5 ± 12	61.3 ± 7.6	62.4 ± 4	66 ± 1.8
318.15 K	83 ± 52	59 ± 29	62.2 ± 17	68.8 ± 12	65.7 ± 7.7	66.8 ± 4	70.2 ± 1.8
323.15 K	86 ± 52	63 ± 28	66.8 ± 17	72.7 ± 12	69.3 ± 7.6	70.6 ± 4	73.9 ± 1.9
328.15 K	90 ± 52	67 ± 28	70.8 ± 17	76 ± 12	72.6 ± 7.5	73.8 ± 3.9	77.1 ± 1.9
333.15 K	92 ± 52	70 ± 28	74.5 ± 17	79 ± 12	75.4 ± 7.5	76.7 ± 3.9	80 ± 1.9
338.15 K	95 ± 52	73 ± 28	78 ± 17	81.6 ± 12	77.9 ± 7.6	79.2 ± 3.9	82.5 ± 1.9
343.15 K	97 ± 52	75 ± 28	80.6 ± 16	83.6 ± 12	80 ± 7.6	81.3 ± 3.9	84.6 ± 1.9
348.15 K	99 ± 52	77 ± 28	83.1 ± 16	85.6 ± 12	81.8 ± 7.6	83.1 ± 3.9	86.4 ± 1.9
353.15 K	101 ± 52	79 ± 28	85.3 ± 16	87.3 ± 12	83.4 ± 7.6	84.8 ± 4	88.1 ± 1.9
358.15 K	102 ± 52	81 ± 28	87.1 ± 16	88.9 ± 12	84.8 ± 7.7	86.2 ± 4	89.5 ± 1.9
363.15 K	103 ± 52	82 ± 28	88.9 ± 17	90.2 ± 12	86 ± 7.7	87.3 ± 4	90.7 ± 1.9
368.15 K	104 ± 52	83 ± 28	90.2 ± 16	91 ± 12	86.9 ± 7.7	88.3 ± 4	91.6 ± 1.9
373.15 K	104 ± 52	83 ± 28	91.1 ± 16	91.7 ± 12	87.5 ± 7.7	89 ± 4	92.4 ± 1.9
378.15 K	104 ± 52	83 ± 27	92.1 ± 16	92.3 ± 12	87.9 ± 7.6	89.4 ± 3.9	92.9 ± 1.9
383.15 K	103.9 ± 52	84 ± 28	93.3 ± 16	92.9 ± 12	88.2 ± 7.6	89.9 ± 3.9	93.3 ± 2
388.15 K	103.5 ± 52	84 ± 28	94.5 ± 16	93.1 ± 12	88.2 ± 7.6	90 ± 3.9	93.6 ± 2
393.15 K	101.4 ± 52	84 ± 28	95.6 ± 16	92.9 ± 12	87.7 ± 7.4	89.7 ± 3.9	93.6 ± 1.9
